Data: article PMC5603587, “Pharmacological inhibition of CaMKK2 with the selective antagonist STO-609 regresses NAFLD” (Scientific Reports, 2017)
Where two headings read alike, the source gives them in different places.

Tests used:
[1] = plasma pharmacokinetics after a single i.p. dose; assay type: in vivo; conditions: male, C57BL/6 J, ip, mouse; for AUC(0-t): read-out: AUC 0-24, plasma
Description: (§1) Plasma samples were prepared by mixing 5.0 μl of plasma with 45 μl of ice-cold MeOH followed by centrifugation at 15,000 × g for 15 min to remove protein. The resulting supernates were transferred into autosampler vials for analysis. Tissues (liver, intestine, kidney, pancreas, spleen, lung, heart, testis, white adipose tissue, gastrocnemius and brain) were weighed and homogenized in H2O/MeOH (1:1 v/v, 100 mg tissue in 600 μl). A volume of 200 μl of MeOH was added to 100 μl of tissue extracts. After vortexing and centrifugation (15 min at 15,000 × g), each supernate was transferred to an autosampler vial and 5.0 μl was injected to a system combining ultra-high performance liquid chromatography (UHPLC) and quadrupole time of flight mass spectrometry (QTOFMS) for analysis. The concentration of STO-609 was calculated based on standard curves in the corresponding matrices. The pharmacokinetic parameters were calculated using non-compartmental analysis with PKSolver[20]. The linear trapezoidal rule was used for area under the curve (AUC) calculation.
(§2) Separation of STO-609 and its metabolites was achieved using a LC-QTOFMS system (Agilent Technologies, Santa Clara, CA) equipped with a 100 mm × 2.1 mm (Agilent XDB C18) column as previously described. Briefly, the column temperature was maintained at 45 °C. The flow rate was maintained at 0.3 ml/min with a gradient ranging from 2% to 98% aqueous acetonitrile containing 0.1% formic acid over a 15 min run. QTOFMS was operated in positive mode with electrospray ionization. Ultra high pure nitrogen was applied as the drying (12 L/min) and collision gas. The drying gas temperature was set at 325°C and nebulizer pressure was maintained at 35 psi. Capillary voltages were set at 3.5 kV. During mass spectrometry, real time mass correction and accurate mass were achieved by continuously measuring standard reference ions at m/z 121.0508, 922.0098 in the positive mode. The MS/MS of STO-609 and its metabolites was performed in targeted mode with a default isolation width of 4 m/z and collision energy ramp ranging from 20 to 50 V. Mass chromatograms and mass spectra were acquired by MassHunter® Workstation data Acquisition software (Agilent, Santa Clara, CA) in centroid and profile formats from m/z 100 to 1000. The acquisition rate was set as 1.5 spectra per second. Statistical analysis was conducted using Student’s independent t-test. Data are presented as mean ± s.e.m.

[2] = tissue distribution after a single i.p. dose; assay type: in vivo; conditions: ip, 30 μM/kg i.p., mouse; for Cmax: 30 μM/kg
Description: as §1, §2

Q: Which AUC(0-inf) ([1]; 30 μM/kg i.p.) does the source give for `O=C(O)c1ccc2c3c1cccc3c(=O)n1c3ccccc3nc21` [STO-609^S] here?
A: The AUC(0-inf) was 317 µM·h.

Q: What about the CL/F ([1]; 30 μM/kg i.p.) of the same molecule?
A: Its CL/F is 1.5 mL/min/kg.

Q: What about the Cmax ([1]; 30 μM/kg i.p.) of the same molecule?
A: The Cmax was 32600 nM.

Q: And the AUC(0-t) ([1]; 30 μM/kg i.p.)?
A: Its AUC(0-t) is 245 µM·h.

Q: What about the half-life ([1]; 30 μM/kg i.p., read-out: t½, plasma (converted)) of the same molecule?
A: The half-life was 12.2 h.

Q: And the AUC(0-inf) ([1]; 300 μM/kg i.p.)?
A: Its AUC(0-inf) is 3250 µM·h.

Q: And the CL/F ([1]; 300 μM/kg i.p.)?
A: The CL/F was 1.5 mL/min/kg.

Q: And the Cmax ([1]; 300 μM/kg i.p.)?
A: Its Cmax is 473000 nM.

Q: What about the AUC(0-t) ([1]; 300 μM/kg i.p.) of the same molecule?
A: Its AUC(0-t) is 2930 µM·h.

Q: What about the half-life ([1]; 300 μM/kg i.p., read-out: t½, plasma (converted)) of the same molecule?
A: The half-life was 7.93 h.

Q: And the half-life ([1]; 30 and 300 μM/kg i.p., read-out: t½, plasma, over the doses)?
A: The half-life was 8 to 12 h.

Q: What about the half-life ([2]; C57BL/6J, intestine, read-out: t½, intestine (converted)) of the same molecule?
A: The half-life was 3.85 h.

Q: And the half-life ([2]; C57BL/6J, kidney, read-out: t½, kidney (converted))?
A: Its half-life is 8.5 h.

Q: And the Cmax ([2]; C57BL/6J, intestine, read-out: Cmax, intestine)?
A: The Cmax was 517 nM.

Q: What about the Cmax ([2]; C57BL/6J, intestine, read-out: Cmax, intestine (text)) of the same molecule?
A: Its Cmax is about 500 nM.

Q: And the Cmax ([2]; C57BL/6J, pancreas, read-out: Cmax, pancreas)?
A: Its Cmax is 329 nM.

Q: And the half-life ([2]; C57BL/6J, pancreas, read-out: t½, pancreas (converted))?
A: The half-life was 3.18 h.

Q: What about the half-life ([2]; C57BL/6J, spleen, read-out: t½, spleen (converted)) of the same molecule?
A: The half-life was 4 h.

Q: What about the half-life ([2]; male, C57BL/6 J, brain, read-out: t½, brain (converted)) of the same molecule?
A: The half-life was 5.21 h.

Q: What about the half-life ([2]; male, C57BL/6 J, gastrocnemius, read-out: t½, gastrocnemius (converted)) of the same molecule?
A: The half-life was 5.83 h.

Q: And the half-life ([2]; male, C57BL/6 J, heart, read-out: t½, heart (converted))?
A: Its half-life is 3.01 h.

Q: And the half-life ([2]; male, C57BL/6 J, liver, read-out: t½, liver (converted))?
A: Its half-life is 3.74 h.

Q: What about the half-life ([2]; male, C57BL/6 J, lung, read-out: t½, lung (converted)) of the same molecule?
A: Its half-life is 3.24 h.

Q: What about the Cmax ([2]; male, C57BL/6 J, gastrocnemius, read-out: Cmax, gastrocnemius) of the same molecule?
A: Its Cmax is 84 nM.

Q: And the Cmax ([2]; male, C57BL/6 J, heart, read-out: Cmax, heart)?
A: The Cmax was 293 nM.

Q: What about the Cmax ([2]; male, C57BL/6 J, spleen, read-out: Cmax, spleen) of the same molecule?
A: Its Cmax is 341 nM.

Q: What about the Cmax ([2]; male, C57BL/6 J, testis, read-out: Cmax, testis) of the same molecule?
A: The Cmax was 209 nM.

Q: And the Cmax ([2]; male, C57BL/6 J, white adipose tissue, read-out: Cmax, white adipose tissue)?
A: The Cmax was 137 nM.

Q: And the half-life ([2]; male, C57BL/6 J, testis, read-out: t½, testis (converted))?
A: The half-life was 3.95 h.

Q: What about the half-life ([2]; male, C57BL/6 J, white adipose tissue, read-out: t½, white adipose tissue (converted)) of the same molecule?
A: Its half-life is 3.93 h.
